From patent US20260007758A1, “SO[…]-2 RECEPTOR (SST2R) NON-PEPTIDE DRUG CONJUGATES AND USES THEREOF” (Crinetics Pharmaceuticals, Inc., priority 2024, published 2026)

Key:
Type in all cases: cell-based
[1] = tested on: NCI-H524 human small cell lung cancer cells; experiment: H524 assay: inhibition of cell proliferation (CellTiter Glo); details: 2 h treatment, washout, additional 70 h incubation
Method in brief: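 NCI-H524 cells were exposed for 2 h to NDC in an 11-point two-fold series starting at 1 uM. The drug was then washed out and cells grew a further 70 h. CellTiter Glo luminescence gave % inhibition versus untreated control, and IC50 came from a four-parameter nonlinear regression.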

[2] = target: T1, human somatostatin receptor subtype 2 (Homo sapiens, UniProt P30874); experiment: Functional assay for SSTR2 agonists (HTRF cAMP); details: CHO-K1 cells stably expressing human SST2; NKH477-stimulated cAMP; 20 min at 37 C; read-out: hSST2 cAMP Avg EC50
T1 construct: expressed in transfected cells
Method in brief: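 CHO-K1 cells stably expressing human SSTR2 treated with compound (typically 0-10,000 nM final) for 20 min at 37 °C. Lysate cAMP measured by HTRF (665/620 nm ratio), converted via standard curve; EC50 from cAMP vs concentration.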

[3] = target: T2, SST2 (Homo sapiens, UniProt P30874); experiment: PathHunter CHO-K1 SST2 Internalization Assay; details: PathHunter CHO-K1 SST2 cells; 90 min at 37 C; luminescence; read-out: Internalization EC50
T2 construct: host or cells: PathHunter CHO-K1 SST2 cells
Method in brief: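 CHO-K1 cells expressing human SST2, 2500 cells/well, grown 48 h, then exposed 90 min at 37 C to 11-point 1:3 NDC dilutions (final top 10 uM). Beta-Glo luminescence after 60 min at room temperature; four-parameter IC50, duplicate mean, background-corrected.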

T1 sequence (P30874 whole entry): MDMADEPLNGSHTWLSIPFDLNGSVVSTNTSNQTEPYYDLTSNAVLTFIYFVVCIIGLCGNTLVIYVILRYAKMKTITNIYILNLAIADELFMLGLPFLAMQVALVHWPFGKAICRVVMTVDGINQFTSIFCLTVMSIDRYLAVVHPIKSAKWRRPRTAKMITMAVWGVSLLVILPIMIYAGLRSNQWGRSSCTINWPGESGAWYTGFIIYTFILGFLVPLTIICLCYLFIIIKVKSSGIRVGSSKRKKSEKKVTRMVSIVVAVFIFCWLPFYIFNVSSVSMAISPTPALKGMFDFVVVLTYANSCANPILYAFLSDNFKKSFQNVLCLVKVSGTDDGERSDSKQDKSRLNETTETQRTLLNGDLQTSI
T2 sequence (P30874 whole entry): as above

Structure (SMILES) | EC50 [1] | EC50 [2] | EC50 [3]
CC[C@H](C)[C@@H]([C@@H](CC(=O)N1CCC[C@H]1[C@H](OC)[C@@H](C)C(=O)N[C@H](C)[C@@H](O)c1ccccc1)OC)N(C)C(=O)[C@@H](NC(=O)[C@H](C(C)C)N(C)C(=O)OCc1ccc(NC(=O)[C@H](CCCNC(N)=O)NC(=O)[C@@H](NC(=O)c2cn(CCOCCC(=O)NCCNc3ncc(-c4cc(C)cc(F)c4)c(N4CCC(N)CC4)c3-c3nc4cc(Cl)ccc4[nH]3)nn2)C(C)C)c(O[C@@H]2O[C@H](C(=O)N3CCNCC3)[C@@H](O)[C@H](O)[C@H]2O)c1)C(C)C [Compound 237] | 8.2 nM | 0.15 nM | 8.4 nM
CC[C@H](C)[C@@H]([C@@H](CC(=O)N1CCC[C@H]1[C@H](OC)[C@@H](C)C(=O)N[C@H](C)[C@@H](O)c1ccccc1)OC)N(C)C(=O)[C@@H](NC(=O)[C@H](C(C)C)N(C)C(=O)OCc1ccc(NC(=O)[C@H](CCCNC(N)=O)NC(=O)[C@@H](NC(=O)C[C@@H](N)C(=O)NCCOCCOCCOCCOCCC(=O)NCCNc2ncc(-c3cc(C)cc(F)c3)c(N3CCC(NC)CC3)c2-c2nc3ccc(Cl)cc3[nH]2)C(C)C)c(O[C@@H]2O[C@H](C(=O)O)[C@@H](O)[C@H](O)[C@H]2O)c1)C(C)C [Compound 122] | 27 nM | 0.19 nM | 8.8 nM
CC[C@H](C)[C@@H]([C@@H](CC(=O)N1CCC[C@H]1[C@H](OC)[C@@H](C)C(=O)N[C@H](C)[C@@H](O)c1ccccc1)OC)N(C)C(=O)[C@@H](NC(=O)[C@H](C(C)C)N(C)C(=O)OCc1ccc(NC(=O)[C@H](CCCNC(N)=O)NC(=O)[C@@H](NC(=O)[C@H](CCC(=O)O)NC(=O)CCOCCC(=O)NCCNc2ncc(-c3cc(C)cc(F)c3)c(N3CC[C@H]4NCCC[C@@H]4C3)c2-c2nc3ccc(Cl)cc3[nH]2)C(C)C)cc1C(=O)NCCN)C(C)C [Compound 80] | 540 nM | 180 nM | 920 nM
CC[C@H](C)[C@@H]([C@@H](CC(=O)N1CCC[C@H]1[C@H](OC)[C@@H](C)C(=O)N[C@H](C)[C@@H](O)c1ccccc1)OC)N(C)C(=O)[C@@H](NC(=O)[C@H](C(C)C)N(C)C(=O)OCc1ccc(NC(=O)[C@H](C)NC(=O)[C@@H](NC(=O)CCOCCC(=O)NCCNc2ncc(-c3cc(C)cc(F)c3)c(N3CCC(N)CC3)c2-c2cc3ccc(OC)cc3[nH]2)C(C)C)c(O[C@@H]2O[C@H](C(=O)O)[C@@H](O)[C@H](O)[C@H]2O)c1)C(C)C [Compound 117] | 58 nM | 0.46 nM | 19 nM
CC[C@H](C)[C@@H]([C@@H](CC(=O)N1CCC[C@H]1[C@H](OC)[C@@H](C)C(=O)N[C@H](C)[C@@H](O)c1ccccc1)OC)N(C)C(=O)[C@@H](NC(=O)[C@H](C(C)C)N(C)C(=O)OCc1ccc(NC(=O)[C@H](CCCNC(N)=O)NC(=O)[C@@H](NC(=O)[C@H](CCC(N)=O)NC(=O)CCOCCOCCOCCOCCC(=O)NCCNc2ncc(-c3cc(C)cc(F)c3)c(N3CCC(N)CC3)c2-c2nc3ccc(Cl)cc3[nH]2)C(C)C)c(OCCN)c1)C(C)C [Compound 26] | 17 nM | 0.3 nM | 12 nM
CC[C@H](C)[C@@H]([C@@H](CC(=O)N1CCC[C@H]1[C@H](OC)[C@@H](C)C(=O)N[C@H](C)[C@@H](O)c1ccccc1)OC)N(C)C(=O)[C@@H](NC(=O)[C@H](C(C)C)N(C)C(=O)OCc1ccc(NC(=O)[C@H](CCCNC(N)=O)NC(=O)[C@@H](NC(=O)CCOCCC(=O)N(C)CC(=O)NCCNc2ncc(-c3cc(C)cc(F)c3)c(N3CCC(N)CC3)c2-c2nc3ccc(Cl)cc3[nH]2)C(C)C)c(O[C@@H]2O[C@H](C(=O)O)[C@@H](O)[C@H](O)[C@H]2O)c1)C(C)C [Compound 133] | 1900 nM | 0.097 nM | 5.3 nM
CC[C@H](C)[C@@H]([C@@H](CC(=O)N1CCC[C@H]1[C@H](OC)[C@@H](C)C(=O)N[C@H](C)[C@@H](O)c1ccccc1)OC)N(C)C(=O)[C@@H](NC(=O)[C@H](C(C)C)N(C)C(=O)OCc1ccc(NC(=O)[C@H](CCCNC(N)=O)NC(=O)[C@@H](NC(=O)c2cc(NCCOCCC(=O)NCCNc3ncc(-c4cc(C)cc(F)c4)c(N4CCC(N)CC4)c3-c3nc4ccc(Cl)cc4[nH]3)cc(C(=O)NCC(=O)S(N)(=O)=O)c2)C(C)C)cc1)C(C)C [Compound 188] | 670 nM | 0.34 nM | 2.7 nM
CC[C@H](C)[C@@H]([C@@H](CC(=O)N1CCC[C@H]1[C@H](OC)[C@@H](C)C(=O)N[C@H](C)[C@@H](O)c1ccccc1)OC)N(C)C(=O)[C@@H](NC(=O)[C@H](C(C)C)N(C)C(=O)OCc1ccc(NC(=O)[C@H](C)NC(=O)[C@@H](NC(=O)CCOCCC(=O)NCCNc2ncc(-c3cc(C)cc(F)c3)c(N3CCC(N)CC3)c2-c2nc3ccc(Cl)cc3[nH]2)C(C)C)c(O[C@@H]2O[C@H](C(N)=O)[C@@H](O)[C@H](O)[C@H]2O)c1)C(C)C [Compound 34] | 1.6 nM | 0.12 nM | 4.4 nM
CC[C@H](C)[C@@H]([C@@H](CC(=O)N1CCC[C@H]1[C@H](OC)[C@@H](C)C(=O)N[C@H](C)[C@@H](O)c1ccccc1)OC)N(C)C(=O)[C@@H](NC(=O)C(C(C)C)N(C)C(=O)OCc1ccc(NC(=O)[C@H](CCCNC(N)=O)NC(=O)[C@@H](NC(=O)CCOCCC(=O)NCCNc2ncc(-c3cc(C)cc(F)c3)c(N3CCC(N)CC3)c2-c2nc3ccc(Cl)cc3[nH]2)C(C)C)c(O[C@@H]2O[C@H](C(=O)N3CCN(CCO)CC3)[C@@H](O)[C@H](O)[C@H]2O)c1)C(C)C (stereo partly drawn) [Compound 229] | 4 nM | 0.1 nM | 4.8 nM
CC[C@H](C)[C@@H]([C@@H](CC(=O)N1CCC[C@H]1[C@H](OC)[C@@H](C)C(=O)N[C@H](C)[C@@H](O)c1ccccc1)OC)N(C)C(=O)[C@@H](NC(=O)[C@H](C(C)C)N(C)C(=O)OCc1ccc(NC(=O)[C@H](CCCNC(N)=O)NC(=O)[C@@H](NC(=O)c2cc(NC(=O)CCCC(=O)N(C)CC(=O)NCCNc3ncc(-c4cc(C)cc(F)c4)c(N4CCC(N)CC4)c3-c3nc4ccc(F)cc4[nH]3)cc(C(=O)NCC(=O)O)c2)C(C)C)cc1)C(C)C [Compound 169] | 32 nM | 0.1 nM | 10 nM
CC[C@H](C)[C@@H]([C@@H](CC(=O)N1CCC[C@H]1[C@H](OC)[C@@H](C)C(=O)N[C@H](C)[C@@H](O)c1ccccc1)OC)N(C)C(=O)[C@@H](NC(=O)[C@H](C(C)C)N(C)C(=O)OCc1ccc(NC(=O)[C@H](CCCNC(N)=O)NC(=O)[C@@H](NC(=O)CCOCCC(=O)NCCNc2ncc(-c3cc(C)cc(F)c3)c(N3CCC(N)CC3)c2-c2nc3ccc(Cl)cc3[nH]2)C(C)C)c(O[C@@H]2O[C@H](C(=O)NCCC(=O)N[C@@H](CCCCNC(=O)CCCCc3ccc(I)cc3)C(=O)O)[C@@H](O)[C@H](O)[C@H]2O)c1)C(C)C [Compound 55] | 11 nM | 0.25 nM | 2 nM
CC[C@@H](C)[C@H]([C@H](CC(=O)N1CCCC1[C@@H](OC)[C@H](C)C(=O)N[C@@H](C)[C@H](O)c1ccccc1)OC)N(C)C(=O)[C@H](NC(=O)[C@@H](C(C)C)N(C)C(=O)OCc1ccc(NC(=O)[C@H](C)NC(=O)[C@H](NC(=O)CCOCCC(=O)NCCNc2ncc(-c3cc(C)cc(F)c3)c(N3CCC(N)CC3)c2-c2nc3ccc(Cl)cc3[nH]2)C(C)C)c(O[C@H]2O[C@@H](C(=O)O)[C@H](O)[C@@H](O)[C@@H]2O)c1)C(C)C (stereo partly drawn) [Compound 240] | 3100 nM | 0.12 nM | 6 nM
CC[C@H](C)[C@@H]([C@@H](CC(=O)N1CCC[C@H]1[C@H](OC)[C@@H](C)C(=O)N[C@H](C)[C@@H](O)c1ccccc1)OC)N(C)C(=O)[C@@H](NC(=O)[C@H](C(C)C)N(C)C(=O)OCc1ccc(NC(=O)[C@H](CCCNC(N)=O)NC(=O)[C@@H](NC(=O)[C@H](CCC(=O)O)NC(=O)CCOCCC(=O)NCCNc2ncc(-c3cc(C)cc(F)c3)c(N3CCC(N)CC3)c2-c2nc3ccc(Cl)cc3[nH]2)C(C)C)cc1C(=O)NCCN(C)C)C(C)C [Compound 64] | 11 nM | 0.12 nM | 2.9 nM
CC[C@H](C)[C@@H]([C@@H](CC(=O)N1CCC[C@H]1[C@H](OC)[C@@H](C)C(=O)N[C@H](C)[C@@H](O)c1ccccc1)OC)N(C)C(=O)[C@@H](NC(=O)[C@H](C(C)C)N(C)C(=O)OCc1ccc(NC(=O)[C@H](C)NC(=O)[C@@H](NC(=O)[C@@H](CS(=O)(=O)O)NC(=O)CCOCCC(=O)NCCNc2ncc(-c3cc(C)cc(F)c3)c(N3CCC(N)CC3)c2-c2nc3ccc(Cl)cc3[nH]2)C(C)C)cc1C(=O)N1CC(C(=O)O)C1)C(C)C [Compound 78] | 350 nM | 0.22 nM | 8.7 nM
CC[C@H](C)[C@@H]([C@@H](CC(=O)N1CCC[C@H]1[C@H](OC)[C@@H](C)C(=O)N[C@H](C)[C@@H](O)c1ccccc1)OC)N(C)C(=O)[C@@H](NC(=O)[C@H](C(C)C)N(C)C(=O)OCc1ccc(NC(=O)[C@H](CCCNC(N)=O)NC(=O)[C@@H](NC(=O)CCOCCC(=O)NCCNc2ncc(-c3cc(C)cc(F)c3)c(N3CCC(N)CC3)c2-c2nc3ccc(Cl)cc3[nH]2)C(C)C)c(O[C@@H]2O[C@H](C(=O)NCCNC(=O)CCOCCOCCOCCOCCC(=O)O)[C@@H](O)[C@H](O)[C@H]2O)c1)C(C)C [Compound 52] | 17 nM | 0.14 nM | 3.5 nM
